{"source": "ChEMBL document CHEMBL1914399", "about": "(Bioorg Med Chem Lett, 2011)", "assay": "Apparent permeability across apical to basolateral side of dog MDCK cells at 50 uM measured every 15 mins for 1.5 hrs by LC-MS/MS analysis", "format": "ADME, cell-based, Canis lupus familiaris"}
{"smiles": "COCCc1ccc(OCC(O)CNC(C)C)cc1", "note": "(stereo unspecified) [METOPROLOL]", "values": [{"measurement": "Papp A→B at 1.5 h, 50 µM", "result": 15.6, "unit": "×10⁻⁶ cm/s"}]}
